From ChEMBL document CHEMBL3774325, “Design, synthesis, and structure-activity relationship study of glycyrrhetinic acid derivatives as potent and selective inhibitors against human carboxylesterase 2” (Eur J Med Chem, 2016)

Experiments:
Homo sapiens = species on record: Homo sapiens; assay: Selectivity ratio of IC50 for CE1 in human liver microsomes to IC50 for CE2 in human liver microsomes
Liver carboxylesterase 1 = molecular target: T1, Liver carboxylesterase 1 (Homo sapiens, UniProt P23141); assay: Inhibition of CE1 in human liver microsomes using 2-(2-Benzoyl-3-methoxyphenyl) benzothiazole as substrate preincubated for 10 mins followed by substrate addition measured after 30 mins by LC-UV analysis
T1 sequence (P23141 whole entry): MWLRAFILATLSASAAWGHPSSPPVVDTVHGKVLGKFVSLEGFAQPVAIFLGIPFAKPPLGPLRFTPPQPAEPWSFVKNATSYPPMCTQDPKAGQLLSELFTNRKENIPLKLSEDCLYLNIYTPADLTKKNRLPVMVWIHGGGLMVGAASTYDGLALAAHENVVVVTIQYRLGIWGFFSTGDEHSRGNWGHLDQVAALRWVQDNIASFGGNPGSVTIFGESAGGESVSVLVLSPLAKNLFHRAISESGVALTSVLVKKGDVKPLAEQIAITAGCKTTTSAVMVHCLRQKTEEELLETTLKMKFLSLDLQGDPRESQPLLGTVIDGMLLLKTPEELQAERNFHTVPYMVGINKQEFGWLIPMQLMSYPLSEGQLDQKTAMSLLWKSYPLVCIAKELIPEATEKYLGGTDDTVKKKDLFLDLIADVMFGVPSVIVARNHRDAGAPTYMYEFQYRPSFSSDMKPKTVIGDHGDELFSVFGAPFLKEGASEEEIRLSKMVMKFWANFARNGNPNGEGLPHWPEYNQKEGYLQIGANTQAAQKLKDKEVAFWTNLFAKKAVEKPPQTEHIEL

Cocaine esterase = molecular target: T2, Cocaine esterase (Homo sapiens, UniProt O00748); assay: Inhibition of CE2 in human liver microsomes using fluorescein diacetate as substrate preincubated for 10 mins followed by substrate addition measured after 30 mins by LC-UV analysis
T2 sequence (O00748 whole entry): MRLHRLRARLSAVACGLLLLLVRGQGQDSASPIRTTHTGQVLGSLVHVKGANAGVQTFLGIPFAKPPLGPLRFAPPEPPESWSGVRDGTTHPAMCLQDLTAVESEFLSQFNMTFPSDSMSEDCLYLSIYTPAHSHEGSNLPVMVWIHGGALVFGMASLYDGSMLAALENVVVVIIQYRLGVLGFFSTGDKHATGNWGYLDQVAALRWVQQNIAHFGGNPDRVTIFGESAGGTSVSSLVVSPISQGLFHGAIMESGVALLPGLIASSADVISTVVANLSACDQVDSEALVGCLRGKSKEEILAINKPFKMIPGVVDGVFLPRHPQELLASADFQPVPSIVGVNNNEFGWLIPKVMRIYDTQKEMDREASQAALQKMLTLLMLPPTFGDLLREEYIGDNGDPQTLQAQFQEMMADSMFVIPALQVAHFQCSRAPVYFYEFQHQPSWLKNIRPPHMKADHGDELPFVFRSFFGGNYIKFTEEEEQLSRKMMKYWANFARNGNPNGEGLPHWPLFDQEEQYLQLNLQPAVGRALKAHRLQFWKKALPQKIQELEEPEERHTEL

COc1cc2c(cc1CC=C(C)C)C(=O)C[C@@H](c1ccc(O)cc1)O2 [BAVACHININ A]
Ratio IC50 (Homo sapiens): 0.8 | IC50 (Liver carboxylesterase 1): 3.47 µM | IC50 (Cocaine esterase): 4.31 µM

CC(=O)O[C@H]1CC[C@]2(C)[C@H]3C(=O)C=C4[C@@H]5C[C@@](C)(C(=O)O)CC[C@]5(C)CC[C@@]4(C)[C@]3(C)CC[C@H]2C1(C)C [ACETOXOLONE]
IC50 (Liver carboxylesterase 1): 49.9 µM

CC(=O)O[C@H]1CC[C@]2(C)[C@H]3C(=O)C=C4[C@@H]5C[C@@](C)(C#N)CC[C@]5(C)CC[C@@]4(C)[C@]3(C)CC[C@H]2C1(C)C
IC50 (Liver carboxylesterase 1): > 100 µM | IC50 (Cocaine esterase): > 100 µM

O=[N+]([O-])c1ccc(OP(=O)(O)Oc2ccc([N+](=O)[O-])cc2)cc1
IC50 (Liver carboxylesterase 1): 0.14 µM

CC1(C)[C@@H](O)CC[C@]2(C)[C@H]3C(=O)C=C4[C@@H]5C[C@@](C)(C(N)=O)CC[C@]5(C)CC[C@@]4(C)[C@]3(C)CC[C@@H]12
Ratio IC50 (Homo sapiens): 0.5 | IC50 (Liver carboxylesterase 1): 6.99 µM | IC50 (Cocaine esterase): 14.2 µM

CC(=O)O[C@H]1CC[C@]2(C)[C@H]3C(=O)C=C4[C@@H]5C[C@@](C)(C(=O)OCCN(C)C)CC[C@]5(C)CC[C@@]4(C)[C@]3(C)CC[C@H]2C1(C)C
Ratio IC50 (Homo sapiens): 3.6 | IC50 (Liver carboxylesterase 1): 12.3 µM | IC50 (Cocaine esterase): 3.42 µM

CCOC(=O)[C@@]1(C)CC[C@]2(C)CC[C@]3(C)C(=CC[C@@H]4[C@@]5(C)CC[C@H](OC(=O)CCC(=O)O)C(C)(C)[C@@H]5CC[C@]43C)[C@@H]2C1
IC50 (Liver carboxylesterase 1): 20.4 µM

COC(=O)[C@@]1(C)CC[C@]2(C)CC[C@]3(C)C(=CC(=O)[C@@H]4[C@@]5(C)CC[C@H](O)C(C)(C)[C@@H]5CC[C@]43C)[C@@H]2C1
Ratio IC50 (Homo sapiens): 4 | IC50 (Liver carboxylesterase 1): 22.4 µM | IC50 (Cocaine esterase): 5.61 µM

CCOC(=O)[C@@]1(C)CC[C@]2(C)CC[C@]3(C)C(=CC[C@@H]4[C@@]5(C)CC[C@H](O)C(C)(C)[C@@H]5CC[C@]43C)[C@@H]2C1
Ratio IC50 (Homo sapiens): 6.3 | IC50 (Liver carboxylesterase 1): 25.1 µM | IC50 (Cocaine esterase): 3.99 µM

CC1(C)C(=O)CC[C@]2(C)[C@H]3CC=C4[C@@H]5C[C@@](C)(C(=O)O)CC[C@]5(C)CC[C@@]4(C)[C@]3(C)CC[C@@H]12
IC50 (Liver carboxylesterase 1): 23.6 µM

CC1(C)[C@@H](O)CC[C@]2(C)[C@H]3CC=C4[C@@H]5C[C@@](C)(C(=O)O)CC[C@]5(C)CC[C@@]4(C)[C@]3(C)CC[C@@H]12
IC50 (Liver carboxylesterase 1): 10.5 µM

CC(=O)O[C@H]1CC[C@]2(C)[C@H]3C(=O)C=C4[C@@H]5C[C@@](C)(C(N)=O)CC[C@]5(C)CC[C@@]4(C)[C@]3(C)CC[C@H]2C1(C)C
Ratio IC50 (Homo sapiens): 1.5 | IC50 (Liver carboxylesterase 1): 11 µM | IC50 (Cocaine esterase): 7.36 µM

CN(C)CCOC(=O)[C@@]1(C)CC[C@]2(C)CC[C@]3(C)C(=CC(=O)[C@@H]4[C@@]5(C)CC[C@H](O)C(C)(C)[C@@H]5CC[C@]43C)[C@@H]2C1
Ratio IC50 (Homo sapiens): 2.3 | IC50 (Liver carboxylesterase 1): 9.13 µM | IC50 (Cocaine esterase): 3.95 µM

CCOC(=O)[C@@]1(C)CC[C@]2(C)CC[C@]3(C)C(=CC(=O)[C@@H]4[C@@]5(C)CC[C@H](OC(=O)CCC(=O)O)C(C)(C)[C@@H]5CC[C@]43C)[C@@H]2C1
Ratio IC50 (Homo sapiens): 152 | IC50 (Liver carboxylesterase 1): > 100 µM | IC50 (Cocaine esterase): 0.66 µM

CC1(C)[C@@H](O)CC[C@]2(C)[C@H]3C(=O)C=C4[C@@H]5C[C@@](C)(C(=O)O)CC[C@]5(C)CC[C@@]4(C)[C@]3(C)CC[C@@H]12 [ENOXOLONE]
IC50 (Liver carboxylesterase 1): 21 µM

CC1(C)C(=O)CC[C@]2(C)[C@H]3C(=O)C=C4[C@@H]5C[C@@](C)(C(=O)O)CC[C@]5(C)CC[C@@]4(C)[C@]3(C)CC[C@@H]12
IC50 (Liver carboxylesterase 1): > 100 µM | IC50 (Cocaine esterase): > 100 µM

CCOC(=O)[C@@]1(C)CC[C@]2(C)CC[C@]3(C)C(=CC(=O)[C@@H]4[C@@]5(C)CC[C@H](O)C(C)(C)[C@@H]5CC[C@]43C)[C@@H]2C1
Ratio IC50 (Homo sapiens): 4.6 | IC50 (Liver carboxylesterase 1): 26.3 µM | IC50 (Cocaine esterase): 5.7 µM
